The values below come from patent EP4759807A1, “PROTEOLYSIS TARGETING CHIMERA COMPOUND FOR DEGRADING IRAK4 AND USE THEREOF” (Shenzhen Zhongge Biological Technology Co., Ltd., priority 2023, dated 2025).

Each structure is given as a SMILES string. Where a name gives a salt, the structure may show the parent alone. Some results are limits rather than exact numbers.

The target of test [1] is T1, IRAK4 (Homo sapiens, UniProt Q9NWZ3).
T1 sequence (Q9NWZ3 1-460): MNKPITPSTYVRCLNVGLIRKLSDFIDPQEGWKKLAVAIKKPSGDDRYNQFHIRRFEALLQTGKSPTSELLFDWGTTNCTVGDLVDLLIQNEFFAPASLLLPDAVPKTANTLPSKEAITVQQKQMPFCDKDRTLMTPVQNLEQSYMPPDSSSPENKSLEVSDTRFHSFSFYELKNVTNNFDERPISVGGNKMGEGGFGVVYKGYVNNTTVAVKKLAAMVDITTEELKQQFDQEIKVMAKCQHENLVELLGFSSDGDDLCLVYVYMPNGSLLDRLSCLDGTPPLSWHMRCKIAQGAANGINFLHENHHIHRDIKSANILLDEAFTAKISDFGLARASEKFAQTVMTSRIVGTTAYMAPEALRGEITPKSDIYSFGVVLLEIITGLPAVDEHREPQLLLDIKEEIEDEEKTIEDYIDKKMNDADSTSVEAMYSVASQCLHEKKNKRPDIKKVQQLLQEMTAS
Put plainly: WB detection of proteolysis (Western Blot, THP-1 cells). Format: cell-based. The settings on record: Western Blot, THP-1 cells, 24 h; for DC50: read-out: DC50; for Dmax: read-out: Dmax. On the procedure:
The degradation level of IRAK4 in THP-1 cells was detected by Western Blot technology. […] 1000X gradient dilution stock of the compound was prepared, with the highest concentration set at 300 µM. The dilution was carried out using DMSO in a 1:3 dilution factor, yielding a total of 9 concentrations. 1000X gradient dilutions of the compound were added to a 12-well plate, with 1 µL per well. Incubation was performed under conditions of 37°C and 5% CO2 for 24 h, and the cells were collected into 2 mL of centrifuge tubes and centrifuged at 5000 rpm for 5 min, and the supernatant was removed. 100 µL of RIPA lysis buffer (Beyotime, P0013C) was added and mixed uniformly, then the cells were lysed on ice for 10 min, centrifuged at 4°C at 14000 rpm for 10 min, and the supernatant was collected. Protein content was determined with BCA (Solarbio, PC0020-10*50T). 75 µL of the supernatant was taken, and 25 µL of NuPAGE LDS Sample Buffer (4X) (Thermo B0007) was added to each tube (5% β-mercaptoethanol was added before use) to prepare samples, and the samples were boiled in a metal bath at 100°C for 5 min. […] 1x NuPAGE™ MOPS SDS electrophoresis buffer (20X) (Invitrogen, NP0001) was prepared, and the electrophoresis instrument was set to a constant current of 300 mA for 100 min, and the protein was transferred to a PVDF membrane (Millipore, IPVH00010). […] The membrane was washed three times with 1x TBST (Elabscience E-BC-R335) the next day, each time for 5 min. […] The membrane was washed three times with TBST, each time for 5 min. The Odyssey imaging system Li-cor Odyssey CLx was used to detect signals and analyze data. GraphPad (Prism 9.3) software was used to perform analysis for data, and non-linear fitting (non-liner inhibitor (Bell-shaped)) and four parameters (4 parameter) were used, and the parameters was as follows: Span1 = Plateau1−Dip [formula] Span2 = Plateau2−Dip [formula] Section1 = Span1/(1+10^(∧)((LogEC50_1−X)*nH1)) [formula] Section2 = Span2/(1+10^(∧)((X−LogEC50_2)*nH2)) [formula]
The equation was as follows: Y=Dip+Section1+Section2.
Background: In western blotting, separated proteins are transferred to a membrane and probed.

Test [2] has as its target T1, IRAK4. Put plainly: Hibit fluorescence detection of proteolysis (IRAK4-HiBiT in HEK293T cells). The format is cell-based. Further details: host or cells: HEK293T (ATCC). To be noted: for Dmax: HEK-293T; for DC50: IRAK4-HiBiT, HEK293T cells, 24 h. In outline:
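Degradation read-out: luminescence from lytic HiBiT detection (15 min, room temperature) after 24 h compound exposure (37 °C, 5% CO2) of HEK293T cells transiently expressing IRAK4 fused to a HiBiT tag. Data fitted to a bell-shaped four-parameter model giving two EC50 values.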

Regarding `Cn1c(=O)n(C2CCC(=O)NC2=O)c2cccc(N3CCC4(CCN(C[C@H]5CC[C@H](n6cc(-n7cc(-c8cnn9ccc(N%10CCOC[C@@H]%10CO)nc89)nn7)c(C(F)F)n6)CC5)CC4)CC3)c21` (stereo partly shown) [Example 174], on IRAK4 [1], the DC50 is under 10 nM and the Dmax was over 70%. `Cn1c(=O)n(C2CCC(=O)NC2=O)c2cccc(N3CCC(N4CCN(C[C@H]5CC[C@H](n6cc(-n7cc(-c8cnn9ccc(N%10CCC[C@H](O)C%10)nc89)nn7)c(C(F)F)n6)CC5)CC4)[C@@H](F)C3)c21` (stereo partly drawn) [Example 297, 3-(4-((3S)-4-(4-(((1R,4S)-4-(3-(difluoromethyl)-4-(4-(5-((S)-3-hydroxypiperidin-1-yl)pyrazolo[1,5-a]pyrimidin-3-yl)-1H-1,2,3-triazol-1-yl)-1H-pyrazol-1-yl)cyclohexyl)methyl)piperazin-1-yl)-3-fluoropiperidin-1-yl)-3-methyl-2-oxo-2,3-dihydro-1H-benzo[d]imidazol-1-yl)piperidine-2,6-dione]: at IRAK4 [1], the DC50 was under 10 nM and the Dmax is over 70%. At IRAK4 [2], `CN(C[C@H]1CC[C@H](n2cc(-n3cc(-c4cnn5ccc(N6CCOCC6)nc45)nn3)c(C(F)F)n2)CC1)C1CCC2(CC1)CC(Nc1cccc3c1n(C)c(=O)n3C1CCC(=O)NC1=O)C2` (stereo partly shown) [Example 23, 3-(4-((7-((((1r,4r)-4-(3-(difluoromethyl)-4-(4-(5-morpholinopyrazolo[1,5-a]pyrimidin-3-yl)-1H-1,2,3-triazol-1-yl)-1H-pyrazol-1-yl)cyclohexyl)methyl)(methyl)amino)spiro[3.5]nonan-2-yl)amino)-3-methyl-2-oxo-2,3-dihydro-1H-benzo[d]imidazol-1-yl)piperidine-2,6-dione] showed a Dmax of over 80% and a DC50 of under 0.5 nM.

On IRAK4 [2], `Cn1c(=O)n(C2CCC(=O)NC2=O)c2cccc(N3CCN(C4CCN(C[C@H]5CC[C@H](n6cc(-n7cc(-c8cnn9ccc(N%10CCC[C@H](N)C%10)nc89)nn7)c(C(F)F)n6)CC5)CC4)CC3)c21` (stereo partly drawn) [Example 117, 3-{4-[4-(1-{[(1S,4r)-4-[3-(difluoromethyl)-4-(4-{5-[(3S)-3-aminohexahydropyridin-1-yl]pyrazolo[1,5-a]pyrimidin-3-yl}-1,2,3-triazol-1-yl)pyrazol-1-yl]cyclohexyl]methyl}hexahydropyridin-4-yl)piperazin-1-yl]-3-methyl-2-oxobenzo[d]imidazol-1-yl}hexahydropyridine-2,6-dione hydrochloride] displayed a Dmax of over 80% and a DC50 of 1 to 5 nM. At IRAK4 [2], `NC(=O)c1cnn2c(-c3cn(-c4cn(C5CCN(CC6CN(c7ccc8c(c7)C(=O)N(C7CCC(=O)NC7=O)C8=O)C6)CC5)nc4C(F)F)nn3)ccc2c1` (stereo not shown) [Example 75] displayed a Dmax of over 80% and a DC50 of 0.5 to 1 nM. On IRAK4 [2], `Cn1c(=O)n(C2CCC(=O)NC2=O)c2cccc(N3CCOC4(CCN(C[C@H]5CC[C@H](n6cc(-n7cc(-c8ccc9cc(C(N)=O)cnn89)nn7)c(C(F)F)n6)CC5)CC4)C3)c21` (stereo partly shown) [Example 88] yielded a Dmax of 70 to 80% and a DC50 of under 0.5 nM.

With `Cn1c(=O)n(C2CCC(=O)NC2=O)c2cccc(C#CCOC3CCN(C[C@H]4CC[C@H](n5cc(-n6cc(-c7cnn8ccc(N9CCOCC9)nc78)nn6)c(C(F)F)n5)CC4)CC3)c21` (stereo partly shown) [Example 7], at IRAK4 [2], the Dmax is 60 to 70% and the DC50 is under 0.5 nM. On IRAK4 [2], `Cn1c(=O)n(C2CCC(=O)NC2=O)c2cccc(C(=O)N3CCC(NC[C@H]4CC[C@H](n5cc(-n6cc(-c7cnn8ccc(N9CCOCC9)nc78)nn6)c(C(F)F)n5)CC4)CC3)c21` (stereo partly shown) [Example 29] had a Dmax of 70 to 80% and a DC50 of over 5 nM. `Cn1c(=O)n(C2CCC(=O)NC2=O)c2cccc(CCCN3CCOC(CNCC4CCC(n5cc(-n6cc(-c7cnn8ccc(N9CCOCC9)nc78)nn6)c(C(F)F)n5)CC4)C3)c21` [Example 2, 3-(4-(3-((S)-2-((((4-(-3-(difluoromethyl)-4-(4-(5-morpholinopyrazolo [1,5-a]pyrimidin-3-yl)-1H-1,2,3-triazol-1-yl)-1H-pyrazol-1-ylcyclohexyl)methyl)amino)methyl)morpholinyl)propyl)-3-methyl-2-oxo-2,3-dihydro-1H-benzo[d]imidazol-1-yl)piperidine-2,6-dione]: at IRAK4 [2], the Dmax was under 60% and the DC50 was under 0.5 nM.

`CN1CCN(c2ccn3ncc(-c4cn(-c5cn([C@H]6CC[C@H](CN7CCC8(CC7)CCN(c7cccc9c7n(C)c(=O)n9C7CCC(=O)NC7=O)CC8)CC6)nc5C(F)F)nn4)c3n2)CC1` (stereo partly shown) [Compound 233] had a Dmax at IRAK4 [2] of 70 to 80%. The DC50 on IRAK4 [2] (read-out: DC50) fell in the range of 0.5 to 1 nM. On to `Cl.Cn1c(=O)n(C2CCC(=O)NC2=O)c2cccc(N3CCN(C4CCN(C[C@H]5CC[C@H](n6cc(-n7cc(-c8cnn9ccc(N%10CCNCC%10)nc89)nn7)c(C(F)F)n6)CC5)CC4)CC3)c21` (stereo partly shown) [Example 131, 3-(4-(4-(1-(1r,4r)-4-(3-difluoromethyl)-4-(4-(5-(piperazin-1-yl)pyrazolo[1,5-a]pyrimidin-3-yl)-1H-1,2,3-triazol-1-yl)-1H-pyrazol-1-yl)cyclohexyl)methyl)piperidin-4-yl)piperazin-1-yl)-3-methyl-2-oxo-2,3-dihydro-1H-benzoimidazol-1-yl)piperidine-2,6-dione hydrochloride], for which, at IRAK4 [2] (read-out: DC50), the DC50 is 0.5 to 1 nM. On IRAK4 [2], `Cn1c(=O)n(C2CCC(=O)NC2=O)c2cccc(N3CCC4(CCN(C[C@H]5CC[C@H](n6cc(-n7cc(-c8cnn9ccc(N%10CCNCC%10)nc89)nn7)c(C(F)F)n6)CC5)CC4)C3)c21` (stereo partly shown) [Example 130, 3-(4-(8-(((1r,4r)-4-(3-(difluoromethyl)-4-(4-(5-(piperazin-1-yl)pyrazolo[1,5-a]pyrimidin-3-yl)-1H-1,2,3-triazol-1-yl)-1H-pyrazol-1-yl)cyclohexyl)methyl)-2,8-diazaspiro[4.5]dec-2-yl)-3-methyl-2-oxo-2,3-dihydro-1H-benzo[d]imidazol-1-yl)piperidine-2,6-dione dihydrochloride] came in with a Dmax of over 80% and a DC50 of 0.5 to 1 nM. For the compound `Cn1c(=O)n(C2CCC(=O)NC2=O)c2cccc(N3CC4CCC(C3)N4C[C@H]3CC[C@H](n4cc(-n5cc(-c6ccc7cc(C(N)=O)cnn67)nn5)c(C(F)F)n4)CC3)c21` (stereo partly drawn) [Example 86, 7-(1-(3-(difluoromethyl)-1-((1R,4R)-4-(3-(1-(2,6-dioxy-3-yl)-3-methyl-2-oxo-2,3-dihydro-1H-benzo[d]imidazol-4-yl)-3,8-diazabicyclo[3.2.1]oct-8-yl)methyl)cyclohexyl-1H-pyrazol-4-yl)-1H-1,2,3-triazol-4-yl)pyrrolo[1,2-b]pyridazine-3-carboxamide], at IRAK4 [2], the Dmax was over 80% and the DC50 lay within 1 to 5 nM. Consider `CN1CCN(c2ccn3ncc(-c4cn(-c5cn([C@H]6CC[C@H](CN7CCC8(CCN(c9cccc%10c9n(C)c(=O)n%10C9CCC(=O)NC9=O)CC8)C7)CC6)nc5C(F)F)nn4)c3n2)CC1` (stereo partly shown) [Compound 232], for which the Dmax at IRAK4 [2] was over 80%. In addition, on IRAK4 [2] (read-out: DC50), the DC50 lay in the range of 0.5 to 1 nM. Compound `Cn1c(=O)n(C2CCC(=O)NC2=O)c2cccc(N[C@H]3CC[C@H](N(C)C[C@H]4CC[C@H](n5cc(-n6cc(-c7cnn8ccc(NCC9CC9)nc78)nn6)c(C(F)F)n5)CC4)CC3)c21` (stereo partly shown) [Compound 226] returned a Dmax on IRAK4 [2] of over 80%. For the same compound, the DC50 at IRAK4 [2] (read-out: DC50) was under 0.5 nM. Regarding `Cn1c(=O)n(C2CCC(=O)NC2=O)c2cccc(N3CCC4(CCN(C[C@H]5CC[C@H](n6cc(-n7cc(-c8cnn9cc(C#N)cnc89)nn7)c(C(F)F)n6)CC5)CC4)CC3)c21` (stereo partly shown) [Compound 199], the Dmax at IRAK4 [2] lay within 60 to 70%. The DC50 at IRAK4 [2] (read-out: DC50) is 1 to 5 nM.
